Measured values published in patent publication US20240285598A1 (priority 2021, published 2024).

Each compound was assayed on SARS-CoV-2 (assay: Antiviral assay (viral RNA in culture supernatant by RT-qPCR)). Details: Severe acute respiratory syndrome coronavirus 2, 72 h, read-out: CC50 (Antiviral Data), MOI of 0.05, 72 h, 96-well plate, RT-qPCR of viral RNA.
With `CCCN(CCC)[C@@H]1C[C@@H](C(=O)NC(C#N)C[C@@H]2CCNC2=O)N(C(=O)[C@@H](NC(=O)C(F)(F)F)C(C)(C)C)C1` (stereo partly drawn) the CC50 was > 100 µM.
For `CC(C)(C)OC(=O)N1C[C@H]2[C@@H]([C@H]1C(=O)N[C@H](C#N)C[C@@H]1CCNC1=O)C2(C)C`, the CC50 was > 100 µM.
Compound `CCCN(CCC)[C@@H]1C[C@@H](C(=O)NC(C#N)C[C@@H]2CCNC2=O)N(C(=O)[C@@H](NC(=O)OC(C)(C)C)C(C)(C)C)C1` (stereo partly drawn) has a CC50 of 10.1 to 100 µM.
With `CCCO[C@@H]1C[C@@H](C(=O)NC(C#N)C[C@@H]2CCNC2=O)N(C(=O)[C@@H](NC(=O)NC(C)(C)C)C(C)(C)C)C1` (stereo partly drawn) the CC50 was > 100 µM.
In the case of `CC(C)(C)NC(=O)N[C@H](C(=O)N1C[C@H]2[C@@H]([C@H]1C(=O)NC(C#N)C[C@@H]1CCNC1=O)C2(C)C)C(C)(C)C` (stereo partly drawn), the CC50 is reported as > 100 µM.
`CCCN(CCC)[C@@H]1C[C@@H](C(=O)NC(C#N)C[C@@H]2CCNC2=O)N(C(=O)[C@@H](NC(=O)NC(C)(C)C)C(C)(C)C)C1` (stereo partly drawn) was tested, and the CC50 was > 100 µM.
With `CC(C)(C)[C@H](NC(=O)C(F)(F)F)C(=O)N1C[C@H](N2CCC(F)(F)CC2)C[C@H]1C(=O)NC(C#N)C[C@@H]1CCNC1=O` (stereo partly drawn) the CC50 was > 100 µM.
Compound `CCCN(CCC)[C@@H]1C[C@@H](C(=O)NC(C#N)C[C@@H]2CCNC2=O)N(C(=O)[C@@H](NC(=O)OCc2ccccc2)C(C)(C)C)C1` (stereo partly drawn) has a CC50 of 10.1 to 100 µM.
With `CCCN(CCC)[C@@H]1C[C@@H](C(=O)NC(C#N)C[C@@H]2CCNC2=O)N(C(=O)[C@@H](NC(=O)OCc2ccccn2)C(C)(C)C)C1` (stereo partly drawn) the CC50 was > 100 µM.
In the case of `CCCN(CCC)[C@@H]1C[C@@H](C(=O)NC(C#N)C[C@@H]2CCNC2=O)N(C(=O)[C@@H](NC(=O)OCc2cccnc2)C(C)(C)C)C1` (stereo partly drawn), the CC50 is reported as > 100 µM.
For `CCCN(CCC)[C@@H]1C[C@@H](C(=O)NC(C#N)C[C@@H]2CCNC2=O)N(C(=O)[C@@H](NC(=O)OCc2ccncc2)C(C)(C)C)C1` (stereo partly drawn), the CC50 was > 100 µM.
`CCCN(CCC)[C@@H]1C[C@@H](C(=O)NC(C#N)C[C@@H]2CCNC2=O)N(C(=O)C(C)(C)NC(=O)C(F)(F)F)C1` (stereo partly drawn) was tested, and the CC50 was > 100 µM.
`CCCN(CCC)[C@@H]1C[C@@H](C(=O)NC(C#N)C[C@@H]2CCNC2=O)N(C(=O)C(C)(C)NC(=O)OCc2ccccc2)C1` (stereo partly drawn) was tested, and the CC50 was > 100 µM.
For `CC(C)(NC(=O)C(F)(F)F)C(=O)N1C[C@H]2[C@@H]([C@H]1C(=O)N[C@H](C#N)C[C@@H]1CCNC1=O)C2(C)C`, the CC50 was > 100 µM.
In the case of `CC(C)(C)[C@H](NC(=O)OCc1ccccc1)C(=O)N1CCC(F)(F)C[C@H]1C(=O)NC(C#N)C[C@@H]1CCNC1=O` (stereo partly drawn), the CC50 is reported as 10.1 to 100 µM.
`CC(C)(C)[C@H](NC(=O)OCc1ccncc1)C(=O)N1C[C@H]2[C@@H]([C@H]1C(=O)N[C@H](C#N)C[C@@H]1CCNC1=O)C2(C)C` showed a CC50 of 1 to 10 µM.
In the case of `CC(C)(C)C(NC(=O)OCc1ccncc1)C(=O)N1C[C@H]2[C@@H]([C@H]1C(=O)N[C@H](C#N)C[C@@H]1CCCNC1=O)C2(C)C` (stereo partly drawn), the CC50 is reported as 1 to 10 µM.
For `CCCN(CCC)[C@@H]1C[C@@H](C(=O)NC(C#N)C[C@@H]2CCNC2=O)N(C(=O)[C@@H](NC(=O)C(Cl)(Cl)Cl)C(C)(C)C)C1` (stereo partly drawn), the CC50 was > 100 µM.
`CCCO[C@@H]1C[C@@H](C(=O)NC(C#N)C[C@@H]2CCNC2=O)N(C(=O)[C@@H](NC(=O)OC(C)(C)C)C(C)(C)C)C1` (stereo partly drawn) showed a CC50 of 10.1 to 100 µM.
`CCCO[C@@H]1C[C@@H](C(=O)NC(C#N)C[C@@H]2CCNC2=O)N(C(=O)[C@@H](NC(=O)OCc2ccccc2)C(C)(C)C)C1` (stereo partly drawn) gave a CC50 of 1 to 10 µM.
With `CC(C)O[C@@H]1C[C@@H](C(=O)NC(C#N)C[C@H]2CCNC2=O)N(C(=O)[C@@H](NC(=O)OCc2ccccn2)C(C)(C)C)C1` (stereo partly drawn) the CC50 was > 100 µM.
In the case of `CC(C)O[C@@H]1C[C@@H](C(=O)NC(C#N)C[C@H]2CCNC2=O)N(C(=O)[C@@H](NC(=O)OCc2cccnc2)C(C)(C)C)C1` (stereo partly drawn), the CC50 is reported as > 100 µM.
In the case of `CC(C)O[C@@H]1C[C@@H](C(=O)NC(C#N)C[C@H]2CCNC2=O)N(C(=O)[C@@H](NC(=O)OC(C)(C)C)C(C)(C)C)C1` (stereo partly drawn), the CC50 is reported as 10.1 to 100 µM.
In the case of `CC(C)O[C@@H]1C[C@@H](C(=O)NC(C#N)C[C@H]2CCNC2=O)N(C(=O)[C@@H](NC(=O)C(O)c2ccco2)C(C)(C)C)C1` (stereo partly drawn), the CC50 is reported as > 100 µM.
For `CC(C)O[C@@H]1C[C@@H](C(=O)NC(C#N)C[C@H]2CCNC2=O)N(C(=O)[C@@H](NC(=O)OCc2ccncc2)C(C)(C)C)C1` (stereo partly drawn), the CC50 was > 100 µM.
For `CC(C)O[C@@H]1C[C@@H](C(=O)NC(C#N)C[C@H]2CCNC2=O)N(C(=O)[C@@H](NC(=O)C(F)(F)F)C(C)(C)C)C1` (stereo partly drawn), the CC50 was 10.1 to 100 µM.
In the case of `CCCN(CCC)[C@@H]1C[C@@H](C(=O)N[C@H](C#N)Cc2cc(C)n[nH]2)N(C(=O)C(NC(=O)C(F)(F)F)C(C)(C)C)C1` (stereo partly drawn), the CC50 is reported as > 100 µM.
`Cc1cc(C[C@@H](C#N)NC(=O)[C@@H]2[C@@H]3[C@H](CN2C(=O)[C@H](NC(=O)C(F)(F)F)C(C)(C)C)C3(C)C)[nH]n1` showed a CC50 of 10.1 to 100 µM.
With `CCCN(CCC)[C@@H]1C[C@@H](C(=O)NC(C#N)Cc2cc(OS(=O)(=O)c3ccc(C)cc3)n(S(=O)(=O)c3ccc(C)cc3)n2)N(C(=O)[C@@H](NC(=O)C(F)(F)F)C(C)(C)C)C1` (stereo partly drawn) the CC50 was > 100 µM.
In the case of `Cc1cc(C[C@@H](C#N)NC(=O)[C@@H]2[C@@H]3[C@H](CN2C(=O)[C@H](NC(=O)C2C4CO[C@@H]5OC[C@@H]2C5C4)C(C)(C)C)C3(C)C)[nH]n1` (stereo partly drawn), the CC50 is reported as > 100 µM.
With `CC(C)Cc1cc(C[C@@H](C#N)NC(=O)[C@@H]2[C@@H]3[C@H](CN2C(=O)[C@H](NC(=O)C(F)(F)F)C(C)(C)C)C3(C)C)[nH]n1` the CC50 was > 100 µM.
With `CC(C)(C)[C@@H](NC(=O)C(F)(F)F)C(=O)N1C[C@H]2[C@@H]([C@H]1C(=O)N[C@H](C#N)Cc1cc(CO)n[nH]1)C2(C)C` the CC50 was > 100 µM.
For `CCCN(CCC)[C@@H]1C[C@@H](C(=O)NC(C#N)Cc2cn[nH]c2O)N(C(=O)[C@@H](NC(=O)C(F)(F)F)C(C)(C)C)C1` (stereo partly drawn), the CC50 was > 100 µM.
`CC(C)(C)[C@H](NC(=O)C(F)(F)F)C(=O)N1C[C@H]2[C@@H]([C@H]1C(=O)NC(C#N)Cc1cn[nH]c1O)C2(C)C` (stereo partly drawn) was tested, and the CC50 was > 100 µM.
Compound `CC(C)(C)C(=O)N[C@H](C(=O)N1C[C@H]2[C@@H]([C@H]1C(=O)N[C@H](C#N)C[C@@H]1CCNC1=O)C2(C)C)C(C)(C)C` has a CC50 of 1 to 10 µM.
In the case of `CC(C)(C)[C@H](NC(=O)C(Cl)(Cl)Cl)C(=O)N1C[C@H]2[C@@H]([C@H]1C(=O)N[C@H](C#N)C[C@@H]1CCNC1=O)C2(C)C`, the CC50 is reported as > 100 µM.
In the case of `CC(C)(C)[C@H](NC(=O)C(F)(F)F)C(=O)N1Cc2ccccc2CC1C(=O)N[C@@H](C#N)C[C@@H]1CCNC1=O` (stereo partly drawn), the CC50 is reported as > 100 µM.
In the case of `CC(C)(C)[C@H](NC(=O)C(Cl)(Cl)Cl)C(=O)N1C[C@H]2[C@@H]([C@H]1C(=O)N[C@H](C#N)C[C@@H]1CCCNC1=O)C2(C)C`, the CC50 is reported as > 100 µM.
For `CC(C)(C)[C@H](NC(=O)C(F)(F)F)C(=O)N1CCN(Cc2ccccc2)CC1C(=O)N[C@@H](C#N)C[C@@H]1CCNC1=O` (stereo partly drawn), the CC50 was > 100 µM.
With `CC(C)(C)OC(=O)N[C@H](C(=O)N1CCN(C(=O)OC(C)(C)C)CC1C(=O)N[C@@H](C#N)C[C@@H]1CCNC1=O)C(C)(C)C` (stereo partly drawn) the CC50 was > 100 µM.
`CC(C)(C)OC(=O)N[C@H](C(=O)N1CCN(C(=O)OC(C)(C)C)C[C@H]1C(=O)NC(C#N)CC1CCNC1=O)C(C)(C)C` (stereo partly drawn) was tested, and the CC50 was > 100 µM.
`CC(C)(C)OC(=O)N[C@H](C(=O)N1Cc2ccccc2C[C@H]1C(=O)NC(C#N)CC1CCNC1=O)C(C)(C)C` (stereo partly drawn) was tested, and the CC50 was > 100 µM.
`CC(C)(C)[C@H](NC(=O)c1ccccc1)C(=O)N1C[C@H]2[C@@H]([C@H]1C(=O)N[C@H](C#N)C[C@@H]1CCNC1=O)C2(C)C` [drawing 68] gave a CC50 of 10.1 to 100 µM.

Same assay, conditions: read-out: CC50 (Antiviral Data); MOI of 0.05, 72 h, 96-well plate, RT-qPCR of viral RNA
For `CC(C)(C)[C@H](NC(=O)C(F)(F)F)C(=O)N1C[C@H]2[C@@H]([C@H]1C(=O)N[C@H](C#N)C[C@@H]1CCNC1=O)C2(C)C` [drawing 61], the CC50 was 10.1 to 100 µM.
`CC(C)(C)[C@H](NC(=O)C(F)(F)F)C(=O)N1C[C@H]2[C@@H]([C@H]1C(=O)N[C@H](C#N)C[C@@H]1CCCNC1=O)C2(C)C` [drawing 62] showed a CC50 of 10.1 to 100 µM.
In the case of `CC(C)(C)[C@H](NC(=O)C(F)(F)F)C(=O)N1C[C@H]2[C@@H]([C@H]1C(=O)N[C@H](C#N)C[C@@H]1CCNC1=O)C2(C)C` [drawing 94], the CC50 is reported as > 100 µM.
Work on `CC(C)(C)[C@H](NC(=O)C(F)(F)F)C(=O)N1C[C@H]2[C@@H]([C@H]1C(=O)N[C@H](C#N)C[C@@H]1CCCNC1=O)C2(C)C` [drawing 95] yielded a CC50 of 1 to 10 µM.
`CC(C)(C)[C@H](NC(=O)c1ccccc1)C(=O)N1C[C@H]2[C@@H]([C@H]1C(=O)N[C@H](C#N)C[C@@H]1CCNC1=O)C2(C)C` [drawing 101] was tested, and the CC50 was 10.1 to 100 µM.
